From US4451477A, “Bendazac treatment of cataract” (Aziende Chimiche Riunite Angelini Francesco A.C.R.A.F. …, priority 1981, dated 1984)
“And” between values parts separate entries of the source, which are not always exact repeats. Equal entries are not always repeated. “Also recorded” adds a separate entry of the source. Structures can show the parent of a compound that is named as a salt. Where two headings read alike, the source gives them in different places.

What was measured:
[1] = cited from earlier work
[2] = biological target: bovine serum albumin (BSA) (Bos taurus, UniProt P02769); assay: heat-induced denaturation of bovine serum albumin (BSA); type: biochemical
Experimental: Experiments in vitro: A study was performed on both lens homogenates and intact lens. The opacification of this material was obtained by heating. For this purpose the same method as that already employed to study blood proteins was used (Silvestrini et al., 1968; Silvestrini et al., 1970) with some minor modifications which are reported below. For the study of the homogenate, fresh rat lens were used which has been removed from the capsule, immersed in phosphate buffer (pH 7.5; 0.1M) in the volumetric ratio of 15:85 and then homogenated. The homogenate was then centrifuged (10 minutes at 4000 r.p.m.), the supernatant was collected and further diluted 1:1 with the above phosphate buffer, alone or containing bendazac at different concentrations. The solution thus obtained was heated at 60° C. for 20 minutes and the denaturation was assessed nephelometrically. As reference a comparison is made with the values obtained with bovine serum albumin (BSA) denaturation.

[3] = oral absorption in man, serum concentration after single oral administration; type: in vivo, human; conditions: for concentration at 2 h: human, serum
From the text: These blood levels appeared too low to obtain therapeutic activity.

isolated bovine lenses = assay: heat-induced opacification of isolated intact bovine lenses (50° C., 120 min, blind score); conditions: same molar concentrations for salts
Experimental: (§1) Experiments in vitro: A study was performed on both lens homogenates and intact lens. The opacification of this material was obtained by heating. For this purpose the same method as that already employed to study blood proteins was used (Silvestrini et al., 1968; Silvestrini et al., 1970) with some minor modifications which are reported below.
(§2) The experiment was repeated using different salts of bendazac including lithium, sodium, potassium, ammonium, organic bases (such as ethylenediamine, piperazine and diisopropylamine) and lysine. […] This experiment proves that the active ingredient is bendazac. The intact lens was studied by using fresh bovine lens which were kept for 2 hours in the phosphate buffer described above, either alone or containing bendazac at different concentrations. The lenses were then heated at 50° C. for 120 minutes; this procedure produced a clear-cut opacification in the subcapsular region. The degree of opacification was assessed blindly (the experimentor was unaware of the treatment), using a score from 0 to 4.
The test was repeated using the various salts of bendazac mentioned above and in this case also with the same molar concentrations the results obtained were identical to those observed with bendazac alone.

blood proteins = conditions: literature; cited from earlier work
lens homogenate = assay: heat-induced denaturation of lens homogenate (60° C., 20 min, nephelometric); type: biochemical, rat; conditions: for % inhibition of heat-induced denaturation of lens homogenate: 60° C., 20 min, pH 7.5
Experimental: as §1
For the study of the homogenate, fresh rat lens were used which has been removed from the capsule, immersed in phosphate buffer (pH 7.5; 0.1M) in the volumetric ratio of 15:85 and then homogenated. The homogenate was then centrifuged (10 minutes at 4000 r.p.m.), the supernatant was collected and further diluted 1:1 with the above phosphate buffer, alone or containing bendazac at different concentrations. The solution thus obtained was heated at 60° C. for 20 minutes and the denaturation was assessed nephelometrically. As reference a comparison is made with the values obtained with bovine serum albumin (BSA) denaturation.
as §2

cataract [4] = assay: second experiment: double blind placebo-controlled anti-cataract study in patients, oral; type: in vivo, human; parameters: key to Vision / Refraction / Overall Judgement / Slit-lamp / Transillumination: +: improvement; 0: no change; -: worsening
Experimental: (§3) A first experiment was conducted on 24 patients with different types of cataract (cortical; corticonuclear, posterior subcapsular). […] The experiment included an examination of vision, refraction and slit-lamp test; the investigator was asked to express an overall judgement. These evaluations were performed before the beginning of treatment, after 4 weeks and again at the end of treatment when prolonged. The lysine salt of bendazac was administered at the dose of 1500 mg (corresponding to […] of bendazac) divided into three daily administrations during meals. The average duration of treatment was 50.4 days with time limits from 28 to 86 days. The study group consisted of 11 females and 13 males with an average age of 59.5 (47-74). The effects of treatment are summarized in Table 3; the values obtained in each patient are illustrated instead in Table 4. For practical purposes the results are expressed as: improvement (+), no change (0), worsening (-).
As a result of these encouraging results we decided to repeat the experiment under double blind conditions comparing the lysine salt of bendazac with placebo. A total of 35 patients were used; 19 were treated with placebo and 16 with the lysine salt of bendazac. The experimental methods used were identical to those described in the first experiment except for the duration of treatment which was always 4 weeks.

cataract [5] = assay: eye drops instilled in 4 patients with cataract; type: in vivo, human; conditions: topical, eye drops 3 times daily for one month
Experimental: Finally, bendazac was administered in 4 patients in the form of eye drops containing 0.25% of the lysine salt of bendazac. Eye drops were instilled 3 times daily for one month.

cataract [6] = assay: first experiment: anti-cataract activity in 24 patients, oral; type: in vivo, human; parameters: key to Vision / Refraction / Slit-lamp and/or transillumin. / Overall Judgement: +: improvement; 0: no change; -: worsening
Experimental: as §3

cataract [7] = conditions: literature, cited from earlier work
[8] = drug molar concentration 5 × 10^-4
[9] = 16 patients, 4 weeks, double blind, placebo (19) 1
[10] = 16 patients, 4 weeks, double blind, placebo (19) 2
[11] = 16 patients, 4 weeks, double blind, placebo (19) --
[12] = individual patient, one per line of Table 6, 4 weeks, oral, listed as bendazac L, (dihydrate)
[13] = 24 patients, 1500 mg daily oral, Table 3 summary
[14] = individual patient, one per line of Table 4, 1500 mg daily oral, 28-86 days, (dihydrate)

Sequence of bovine serum albumin (BSA) (P02769 25-607): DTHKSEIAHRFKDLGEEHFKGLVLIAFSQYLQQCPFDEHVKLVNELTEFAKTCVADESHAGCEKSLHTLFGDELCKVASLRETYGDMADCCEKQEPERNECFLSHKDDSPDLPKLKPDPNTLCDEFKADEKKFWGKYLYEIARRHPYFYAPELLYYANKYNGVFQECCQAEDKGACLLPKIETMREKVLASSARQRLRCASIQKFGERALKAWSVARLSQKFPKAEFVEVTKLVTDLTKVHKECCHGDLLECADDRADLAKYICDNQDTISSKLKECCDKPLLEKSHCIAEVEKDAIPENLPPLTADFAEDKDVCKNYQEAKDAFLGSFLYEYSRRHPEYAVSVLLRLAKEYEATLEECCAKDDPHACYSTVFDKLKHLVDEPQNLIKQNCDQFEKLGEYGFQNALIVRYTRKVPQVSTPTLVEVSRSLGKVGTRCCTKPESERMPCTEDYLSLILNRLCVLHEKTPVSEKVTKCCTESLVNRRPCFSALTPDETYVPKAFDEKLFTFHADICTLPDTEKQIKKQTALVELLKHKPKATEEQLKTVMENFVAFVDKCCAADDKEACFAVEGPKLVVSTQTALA

## O=C(O)COc1nn(Cc2ccccc2)c2ccccc12 [bendazac, [(1-benzyl-1H-indazol-3-yl)oxy]acetic acid]
[1]; Silvestrini et al.
  oral absorption in humans: rather low; also recorded: too low
[1]; following 8 days of treatment at increasing doses from 150 to 900 mg daily, humans
  blood levels: 8 µg
[2]; [8]
  inhibition at 500 µM: 47%
[2]; drug molar concentration 10^-3
  inhibition at 1000 µM: 60%
[2]; drug molar concentration 10^-4
  inhibition at 100 µM: 12%
[3]; 300 mg of bendazac alone, oral, under the same conditions, read-out: serum levels
  concentration at 2 h: 8000 ng/mL
Isolated bovine lenses
  protective effect on lens opacification in vitro (words): protective action in vitro with respect to lens opacification
Isolated bovine lenses; listed as Bendazac
  protective effect on lens opacification in vitro (words): clearcut protective effect on this experimentally induced cataract
Blood proteins
  anti-denaturant activity on proteins: very specific anti-denaturant activity on some blood proteins
Lens homogenate; compared with BSA
  protective effect on heat-induced denaturation of lens homogenate: prevents heat-induced denaturation of lens homogenate and that this protective effect is similar to that observed with BSA
Lens homogenate; [8]
  % inhibition of heat-induced denaturation of lens homogenate: 32%
Lens homogenate; drug molar concentration 10^-3
  % inhibition of heat-induced denaturation of lens homogenate: 68%
Lens homogenate; drug molar concentration 10^-4
  % inhibition of heat-induced denaturation of lens homogenate: 18%

## O=C(O)COc1nn(Cc2ccccc2)c2ccccc12
Lens homogenate; at the same molar concentrations
  anti-denaturant effect on the lens homogenate compared with bendazac alone: the same anti-denaturant effect on the lens homogenate as that of bendazac alone

## O=C(O)COc1nn(Cc2ccccc2)c2ccccc12 [lysine salt of bendazac, Salt of [(1-benzyl-1H-indazol-3-yl)oxy]acetic acid with L. lysine (dihydrate)]
Cataract [4]; 16 patients, 4 weeks, double blind
  Overall Judgement: worsening (-), number of patients: 2
Cataract [4]; [9]
  Overall Judgement: improvement (+), number of patients: 11
  Refraction: improvement (+), number of patients: 9
  Transillumination: no change (0), number of patients: 2
  Vision: improvement (+), number of patients: 10
Cataract [4]; [10]
  Overall Judgement: no change (0), number of patients: 3
  Slit-lamp: no change (0), number of patients: 2
Cataract [4]; 16 patients, 4 weeks, double blind, placebo (19) 6
  Vision: no change (0), number of patients: 6
Cataract [4]; 16 patients, 4 weeks, double blind, placebo (19) 9
  Slit-lamp: worsening (-), number of patients: 1
Cataract [4]; 16 patients, 4 weeks, double blind, placebo (19) 12
  Refraction: no change (0), number of patients: 7
Cataract [4]; [11]
  Slit-lamp: improvement (+), number of patients: 10
  Transillumination: improvement (+), number of patients: 4
Cataract [4]; [12]
  Overall Judgement: 0 and + and -
  Refraction: 0 and +
  Slit-lamp: + and 0 and -
  Transillumination: + and 0
  Vision: 0 and +
Cataract [4]; oral administration, patients, (dihydrate)
  effect on cataract: healing effect on cataract; also recorded: induces a regression of the disease
[3]; 2 hours after single oral administration of 500 mg lysine salt (= 303.8 mg bendazac), 6 volunteers, read-out: mean serum concentration
  concentration at 2 h: 30000 ng/mL
[3]; lysine salt vs bendazac alone, (dihydrate)
  oral absorption in man: good oral absorption; also recorded: better absorbed in man than bendazac alone
Cataract [5]
  effect on cataract: induces a regression of the disease
Cataract [6]; [13]
  Overall Judgement: improvement (+), number of patients: 18
  Overall Judgement: no change (0), number of patients: 5
  Overall Judgement: worsening (-), number of patients: 1
  Refraction: improvement (+), number of patients: 10
  Refraction: no change (0), number of patients: 13
  Refraction: worsening (-), number of patients: 1
  Slit-lamp and/or Transillum.: improvement (+), number of patients: 14
  Slit-lamp and/or Transillum.: no change (0), number of patients: 10
  Vision: improvement (+), number of patients: 18
  Vision: no change (0), number of patients: 6
Cataract [6]; depending on the evaluation method
  number of patients with improvement: 10-18 patients
Cataract [6]; first experiment, 24 patients
  number of patients with relatively poor results: 5 patients
  number of patients with worsening effect: 1 patient
Cataract [6]; [14]
  Overall Judgement: + and - and 0
  Refraction: + and 0 and -
  Slit-lamp and/or transillumin.: + and 0
  Vision: + and 0

## CC(=O)Oc1ccccc1C(=O)O [aspirin, acetylsalicylic acid]
Cataract [7]
  effect on cataract development (words): possible slowdown in cataract development
Cataract [7]; listed as acetylsalicylic acid
  effect on cataract development (words): delays the development of cataract but does not determine its regression

## O=C(O)c1cc(O)c2c3nc4ccccc4oc-3cc(=O)c2n1 [Catalin, 1-hydroxy-5-oxo-5H-pyrido[3,2-a]phenoxazino-3-carboxylic acid]
Cataract [7]
  effect on cataract development (words): possible slowdown in cataract development
